The results in this text go back to patent US20250243174A1, “ANTITUMORAL COMPOUNDS” (PHARMA MAR, S.A., priority 2021, published 2025).

The nature of series [1]: MTMD (Maximum Tolerated Multiple Dose) determination. The settings on record: iv, Q7dx3; female athymic nude mice. The series is classed as in vivo. The protocol:
(§1) Female Athymic Nude-Fox1 nu/nu mice (Envigo) were utilized for all experiments. Animals (N=10/cage) were housed in individually ventilated cages (Sealsafe Plus®, Techniplast S.P.A.), on a 12-hour light-dark cycle at 21-23° C. and 40-60% humidity. Mice were allowed free access to irradiated standard rodent diet (Tecklad 2914C) and sterilized water. Animals were acclimated for five days prior to being individually tattoo-identified. Animal protocols were reviewed and approved according to the regional Institutional Animal Care and Use Committees.
(§2) Mice were randomly allocated into experimental groups and intravenously administered, once for the MTD (Maximum Tolerated Dose) determination or one administration a week during three consecutive weeks, for the MTMD (Maximum Tolerated Multiple Dose) determination study. The animals were administered with white formulation or with compound dissolved in the experimental formulation at different concentrations. The volume administered was always 10 mL/kg. Once administered, animals were monitored for clinical signs of systemic toxicity, changes in body weight and mortality up to 14 days after the administration.

The test system of the next series is PSN-1. Description: SRB colorimetric cytotoxicity assay, PSN-1. The series is classed as cell-based. The note with it: Homo sapiens, PSN1, 72 h, read-out: GI50 (M) PSN-1. An excerpt: (§3) The aim of this assay is to evaluate the in vitro cytostatic (ability to delay or arrest tumor cell growth) or cytotoxic (ability to kill tumor cells) activity of the samples being tested.
(§4) A colorimetric assay, using sulforhodamine B (SRB) reaction has been adapted to provide a quantitative measurement of cell growth and viability (using the technique developed by Skehan et al., J. Natl. Cancer Inst. 1990 and following the protocol detailed in V. Vichai and K. Kirtikara (2006) Nature Protoc. 1, 1112-1116.)
(§5) This form of assay employs 96-well cell culture microplates. All the cell lines used in this study were obtained from the American Type Culture Collection (ATCC), unless otherwise indicated, and derive from different types of human cancer.
(§6) Cells were maintained in Dulbecco's Modified Eagle Medium (DMEM) (for A549, HT-29 and MDA-MB-231) or RPMI (for PSN-1) supplemented with 10% Fetal Bovine Serum (FBS), 2 mM L-glutamine, 100 U/mL penicillin and 100 U/mL streptomycin at 37° C., 5% CO2 and 98% humidity. For the experiments, cells were harvested from subconfluent cultures using trypsinization and resuspended in fresh medium before counting and plating.
(§7) Cells were seeded in 96 well microtiter plates, at 5×10^3 cells per well in aliquots of 150 μL, and allowed to attach to the plate surface for 18 hours (overnight) in drug free medium. After that, one control (untreated) plate of each cell line was fixed (as described below) and used for time zero reference value. Culture plates were then treated with test compounds (50 μL aliquots of 4× concentrated compound stock solutions made in complete culture medium) using ten serial dilutions (concentrations ranging from […]) and triplicate cultures (final concentration of DMSO being 1%). After 72 hours treatment, the antitumor effect was measured by using the SRB methodology: Briefly, cells were washed twice with PBS, fixed for 15 min in 1% glutaraldehyde solution at room temperature, rinsed twice in PBS, and stained in 0.4% SRB solution for 30 min at room temperature. Cells were then rinsed several times with 1% acetic acid solution and air-dried at room temperature. SRB was then extracted in 10 mM trizma base solution and the absorbance measured in an automated spectrophotometric plate reader at 490 nm. Effects on cell growth and survival were estimated by applying the NCI algorithm (Boyd M R and Paull K D. Drug Dev. Res. 1995, 34, 91-104).
(§8) Using the mean±SD of triplicates, a dose-response curve was automatically generated using nonlinear regression analysis to a 4-parameter logistic curve. Three reference parameters were calculated (NCI algorithm) by automatic interpolation: GI50=compound concentration that produces […] cell growth inhibition, as compared to control cultures.

A further series concerns MDA-MB-231. In words: SRB colorimetric cytotoxicity assay, MDA-MB-231. The series is classed as cell-based. The settings on record: Homo sapiens, MDA-MB-231, 72 h, read-out: GI50 (M) MDA-MB-231.
Source text: as §3, §4, §5, §6, §7, §8

The nature of series [2]: MTD (Maximum Tolerated Dose) determination. The note with it: Athymic Nude-Fox1 nu/nu, mouse, in vivo; iv, single dose; female athymic nude mice. How it is done:
as §1, §2

The test system of another series is A549. In words: SRB colorimetric cytotoxicity assay, A549. The series is classed as cell-based. The note with it: Homo sapiens, A549, 72 h, read-out: GI50 (M) A549.
Source text: as §3, §4, §5, §6, §7, §8

The next series concerns HT29. Description: SRB colorimetric cytotoxicity assay, HT29. The series is classed as cell-based. The note with it: Homo sapiens, HT-29, 72 h, read-out: GI50 (M) HT29.
Source text: as §3, §4, §5, §6, §7, §8

For a further series, the system named is H460 xenografts. In words: Comparative Example, in vivo H460 xenograft (PM050489). On the set-up: species or system mice. The settings on record: 0.08 mg/kg iv. The protocol: H460 cells were maintained in vitro at 37° C. with 5% CO2 in Dulbecco's Modified Eagle's Medium (Sigma-Aldrich, Co). Culture cells were passaged every 3 to 5 days upon reaching confluence. Each animal was subcutaneously implanted (on the right flank using 26G needle and a 1 cc syringe) at 4-6 weeks of age with 5×10^6 H460 cells suspended in 0.05 mL of a solution consisting of 50% Matrigel (Corning Incorporated Life Sciences) and 50% medium without serum or antibiotics.
Antitumor activity of PM050489 was evaluated in one human tumor model, NSCLC (H460) xenografted in immunodepressed mice. All treatments were intravenously administered at their MTD.
When tumors reached ca. 150-200 mm^3, tumor bearing animals (N=10/group) were randomly allocated into the following treatment groups: • PM050489 (0.08 mg/kg) • Placebo
Treatments were intravenously administered once per week for 2 consecutive weeks (days 0 and 7).
Tumor dimensions and body weights were recorded 3 times per week starting from the first day of treatment (Day 0). Treatments producing >20% lethality and/or 20% net body weight loss were considered toxic. Tumor volume was calculated using the equation (a·b^2)/2, where a and b were the longest and shortest diameters, respectively. Animals were euthanized when their tumors reached ca. 2,000 mm^3 and/or severe necrosis was seen. Median, mean and SD were calculated for tumor volume on each measurement day.
Antitumor effect was calculated by using ΔT/ΔC (%) and tumor growth delay (TGD). ΔT/ΔC was defined as a percentage of the change in tumor volume for each treated (T) and placebo (C) group. ΔT/ΔC was calculated immediately before the 2nd dose and on the 4th week of the study. TGD was expressed as a percentage by which the treated group volume was delayed and calculated by applying [(Dt−Dc)/Dc]100, where […] were the median times in days for treated and control groups in attaining a specified volume, fixed as 1,000 mm^3.
Treatment tolerability was assessed by monitoring body weight evolution, clinical signs as well as evidences of local damage in the injection site.

Take `COC1=CC[C@@H]([C@@H](C)/C=C(C)/C=C\C=C/C(=O)N[C@H](C(=O)N/C=C\C[C@H](C/C=C(\C)Cl)OC(N)=O)C(C)(C)C)OC1=O` [PM050489, reference compound]: the MTMD in series [1] stood at 0.075 mg/kg. Besides, the concentration for 50% growth inhibition (GI50) was 1.9e-10 M in the series on PSN-1, 1.37e-10 M with MDA-MB-231, 8.59e-11 M in the series on A549 and 3.91e-11 M in the series with HT29. In series [2], this compound registered an MTD at 14 days of 0.075 mg/kg. Besides, the “treatment tolerability” value with H460 xenografts is on record as “prematurely finished because of severe necrosis in the tumor masses and/or decreases in body weight values”. Besides, the “ΔT/ΔC (%) Day 7” value in the series with H460 xenografts (days 0 and 7, Day 7) is given as 103.5%. Moreover, in the series on H460 xenografts (tumor growth delay, target volume 1,000 mm^3), the “TGD (%)” value turned out to be 40.0%.
